# Assays:
# [1] = system: cytokines induced in mice by LPS; test: Mouse LPS cytokine model, Example 6C Study 3, omega fatty acids with or without 0.25 mg/kg 1:1 CBD:CBDA; assay type: in vivo
# Procedure: (§1) A series of experiments using a mouse LPS cytokine animal model were performed. In the mouse LPS cytokine animal model, mice were injected with LPS, which induced the immune response shortly after the mice were injected with one of the potential anti-inflammatory compounds under evaluation (the “test compound”). The efficacy of the test compound was evaluated based on its ability to reduce expression levels of inflammatory cytokines that were elevated due to the immune response. The test compounds included a cannabinoid, an omega fatty acid, and a cannabinoid-omega fatty acid composition.
# (§2) The mice were intraperitoneally injected with 0.1 mL of the test compound. One hour later, the mice were intraperitoneally injected with 0.1 mL of LPS in phosphate buffered saline (PBS). Four hours later, a heart puncture was performed and the blood was allowed to clot to generate serum. 0.1 mL of the serum was diluted 1:2 with PBS and stored at −80° C. The serum was then sent to a laboratory where a mouse cytokine array/chemokine array 31-plex (MD31) analysis was performed that analyzed the expression levels of the 32 cytokines/chemokines listed in Table 9, above.
# (§3) For each considered test compound, the ability of the test compound to suppress each inflammatory cytokine was calculated by determining the percent suppression.
# In this study, the effects of combining 1:1 CBD:CBDA with anti-inflammatory omega unsaturated fatty acids using the mouse LPS cytokine animal model were examined.
# 40 female C57BL/6 mice that weighed approximately 20 g each were allowed to acclimate for one week with unlimited access to food and water. On the day of the study, the mice were weighed and split into ten groups of four mice each so that the average weight of each group was as close as possible to each other. […] (9) LPS plus 37.50 mg omega fatty acids (0.1 mL injection of 375.00 mg/mL omega fatty acids diluted in MCT oil, followed 1 hour later by a 0.1 mL injection of LPS in PBS); and (10) LPS plus 37.50 mg omega fatty acids/0.005 mg 1:1 CBD:CBDA (0.1 mL injection of 375.00 mg/mL omega fatty acids/0.05 mg/mL 1:1 CBD:CBDA diluted in MCT oil, followed 1 hour later by a 0.1 mL injection of LPS in PBS).
# 24 out of the 32 analyzed cytokines were induced two-fold by LPS. Because the purpose of this experiment was to evaluate the effectiveness of combining 1:1 CBD:CBDA and the anti-inflammatory omega fatty acids, only cytokines that could be suppressed by one of the anti-inflammatory agents used in this study were considered. 24 out of the 24 cytokines whose expression level was induced-two fold or greater by LPS met these criteria.
# [2] = system: cytokines induced in mice by LPS; test: Mouse LPS cytokine model, Example 6D, ALA, DHA and EPA omega-3 samples; assay type: in vivo; details: 12.5 mg total omega fatty acids per mouse, DXM 0.01 mg per mouse
# Procedure: as §1, §2, §3
# 36 female C57BL/6 mice that weighed approximately 20 g each were obtained and allowed to acclimate for one week after arrival with unlimited access to food and water. On the day of the study, the mice were weighed and split into eight groups of four mice each so that the average weight of each group was as close as possible to each other.
# All of the omega fatty acid samples that were tested were diluted so the dose was 12.5 mg of total omega fatty acids per mouse. […] The omega fatty acids samples tested included: (1) pollock oil, 456 mg/mL omega unsaturated fatty acids. The pollock oil contained a mixture of anti-inflammatory omega-3, omega-7 and omega-9 unsaturated fatty acids. […] (2) Flaxseed oil, 656 mg/mL anti-inflammatory omega unsaturated fatty acids. The flaxseed oil contained a mixture of anti-inflammatory omega-3 and omega-9 unsaturated fatty acids. The omega-3 and omega-9 unsaturated fatty acids constituted 77.6% and […], respectively, of the anti-inflammatory omega fatty acids contained in the flaxseed oil. A 12.5 mg dose contained 9.7 mg of ALA in the triglyceride form. (3) Mono 2:1 DHA:EPA, 744 mg/mL omega-3 unsaturated fatty acids that were primarily DHA or EPA. A 12.5 mg dose contained 7.81 mg of DHA and 3.91 mg of EPA. The omega-3 unsaturated fatty acids were in the free mono form. […] A 12.5 mg dose contained 3.85 mg of DHA and 7.69 mg of EPA. The omega-3 unsaturated fatty acids were in the free mono form. (5) Tri 2:1 DHA:EPA, 678.9 mg/mL omega-3 unsaturated fatty acids that were primarily DHA or EPA. A 12.5 mg dose contained 7.88 mg of DHA and 3.94 mg of EPA. The omega-3 unsaturated fatty acids were in the triglyceride form. (6) Tri 1:2 DHA:EPA, 678.9 mg/mL omega-3 unsaturated fatty acids that were primarily DHA or EPA. A 12.5 mg dose contained 3.60 mg of DHA and 7.19 mg of EPA. The omega-3 unsaturated fatty acids were in the triglyceride form.
# [3] = system: cytokine levels in differentiated THP-1 cells treated with LPS; test: THP-1 human cellular LPS cytokine assay, three independent experiments, total averaged suppression; details: Homo sapiens, THP-1, 4 h, read-out: % Cytokine Suppression (total averaged)
# Procedure: Cells were seeded onto 24-, or 12-well plates and incubated for 48 hours to 72 hours to allow for differentiation. […] Supernatants were collected for quantification of human cytokine levels to assess the cytokine response. Cells remaining after the supernatant collection were tested to ensure they had at least 90% viability as determined by Alamar Blue assays. To conduct the Alamar Blue assays, supernatants were replaced with culture medium containing 1× Alamar Blue reagent and incubated overnight. Cell viability was assessed by measuring relative fluorescent units (RFU) on the SpectraMax M2e microplate reader (Molecular Devices Inc., Sunnyvale, Calif., USA) at Excitation 560 nm and Emission 590 nm. Controls included untreated cells with DMSO at the same concentration as the treated cells, LPS stimulated cells with DMSO at the same concentration as the treated cells and LPS stimulated cell with the various treatments. The levels of 42 of the most common human cytokines (Eve Technologies, Calgary, Canada Table 6) were determined by multi-plex analysis.
# For this reason, the level of cytokine suppression was determined for each cytokine by each cannabinoid that was tested and the total averaged suppression for each cannabinoid was determined by dividing the total suppression by the number of the cytokines that were analyzed.
# [4] = 0.01 mg dexamethasone in MCT oil
smiles,measurement,setting,value
"C[C@@H]1C[C@H]2[C@@H]3CCC4=CC(=O)C=C[C@]4(C)[C@@]3(F)[C@@H](O)C[C@]2(C)[C@@]1(O)C(=O)CO [Dexamethasone, dexamethasone]","Percent suppression of elevated cytokine levels, Eotaxin",[1]; [4],7.26%
same,"Percent suppression of elevated cytokine levels, IFNγ",[1]; [4],44.52%
same,"Percent suppression of elevated cytokine levels, IL-1β",[1]; [4],35.53%
same,"Percent suppression of elevated cytokine levels, IL-2",[1]; [4],−9.46%
same,"Percent suppression of elevated cytokine levels, IL-6",[1]; [4],85.95%
same,"Percent suppression of elevated cytokine levels, IL-7",[1]; [4],96.66%
same,"Percent suppression of elevated cytokine levels, IL-10",[1]; [4],57.41%
same,"Percent suppression of elevated cytokine levels, IL-12β p40",[1]; [4],54.79%
same,"Percent suppression of elevated cytokine levels, IL-12β p70",[1]; [4],−51.07%
same,"Percent suppression of elevated cytokine levels, IL-13",[1]; [4],11.39%
same,"Percent suppression of elevated cytokine levels, IL-15",[1]; [4],−13.42%
same,"Percent suppression of elevated cytokine levels, IL-17",[1]; [4],63.75%
same,"Percent suppression of elevated cytokine levels, IP-10",[1]; [4],42.02%
same,"Percent suppression of elevated cytokine levels, KC",[1]; [4],60.10%
same,"Percent suppression of elevated cytokine levels, LIF",[1]; [4],47.18%
same,"Percent suppression of elevated cytokine levels, MCP-1",[1]; [4],57.29%
same,"Percent suppression of elevated cytokine levels, MIG",[1]; [4],−0.29%
same,"Percent suppression of elevated cytokine levels, MIP-1α",[1]; [4],47.13%
same,"Percent suppression of elevated cytokine levels, MIP-1β",[1]; [4],34.67%
same,"Percent suppression of elevated cytokine levels, MIP-2",[1]; [4],37.57%
same,"Percent suppression of elevated cytokine levels, RANTES",[1]; [4],37.87%
same,"Percent suppression of elevated cytokine levels, TNF-α",[1]; [4],51.43%
same,"Percent suppression of elevated cytokine levels, VEGF",[1]; [4],75.98%
same,"Percent suppression of elevated cytokine levels, AVERAGE SUPPRESSION","[1]; 0.01 mg dexamethasone in MCT oil, average of 24 cytokines",37.59%
same,decrease in the cytokine expression levels (average),[1]; 0.01 mg per mouse,37.59%
same,AVERAGE SUPPRESSION,[2],43.34%
same,Eotaxin suppression,[2],24.14%
same,IL-6 suppression,[2],76.02%
same,IL-10 suppression,[2],47.30%
same,IP-10 suppression,[2],41.65%
same,KC suppression,[2],56.41%
same,MCP-1 suppression,[2],54.99%
same,MIG suppression,[2],25.46%
same,MIP-1α suppression,[2],55.47%
same,MIP-1β suppression,[2],48.33%
same,RANTES suppression,[2],39.58%
same,AVERAGE SUPPRESSION,[2]; listed as DXM,43.34%
same,AVERAGE SUPPRESSION,[2]; listed as dexamethasone,43.34%
same,inhibition at 2 µM,[3],51%

# From patent publication US12678451B2, “Cannabinoid and omega fatty acid compositions and methods of using” (GreenWay Herbal Products, LLC, priority 2019, dated 2026)
